Test results: PubChem BioAssay (NCI)
Several values for one entry are separate records, joined by “and”; a condition that tells them apart may be missing. Equal entries are not always repeated.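 Where inhibition never reached the appropriate level, the endpoint shown equals the highest concentration tested. Otherwise, values were interpolated linearly from a five-concentration, 48-hour dose response in 96-well plates. GI50 = concentration required for 50% inhibition of growth. The concentration for full growth arrest is given as TGI.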

What was measured:
Experiment in all cases: NCI-60 cell line screen, 48 h
UACC-62 melanoma = test system: UACC-62 melanoma
SNB-19 CNS = test system: SNB-19 CNS
EKVX NSCLC = test system: EKVX NSCLC
IGROV1 ovarian = test system: IGROV1 ovarian
SNB-75 CNS = test system: SNB-75 CNS
OVCAR-8 ovarian = test system: OVCAR-8 ovarian
COLO 205 colon = test system: COLO 205 colon
NCI-H226 lung = test system: NCI-H226 lung
SK-MEL-2 melanoma = test system: SK-MEL-2 melanoma
MCF7 breast = test system: MCF7 breast

| Structure (SMILES) | TGI (UACC-62 melanoma) [µM] | TGI (SNB-19 CNS) [µM] | TGI (EKVX NSCLC) [µM] | TGI (IGROV1 ovarian) [µM] | TGI (SNB-75 CNS) [µM] | TGI (OVCAR-8 ovarian) [µM] | TGI (COLO 205 colon) [µM] | TGI (NCI-H226 lung) [µM] | TGI (SK-MEL-2 melanoma) | TGI (MCF7 breast) [µM] | GI50 (UACC-62 melanoma) [µM] | GI50 (SNB-19 CNS) [µM] | GI50 (EKVX NSCLC) [µM] | GI50 (IGROV1 ovarian) | GI50 (SNB-75 CNS) [µM] | GI50 (OVCAR-8 ovarian) [µM] | GI50 (COLO 205 colon) | GI50 (NCI-H226 lung) | GI50 (SK-MEL-2 melanoma) | GI50 (MCF7 breast) [µM] |
| --- | --- | --- | --- | --- | --- | --- | --- | --- | --- | --- | --- | --- | --- | --- | --- | --- | --- | --- | --- | --- |
| C[C@@]12CCC(=O)C=C1CC[C@H]1C2=CC[C@]2(C)C1CC[C@@]2(C)O (some centres undefined) | > 100 | > 100 | > 100 | > 100 | > 100 | > 100 | > 100 | > 100 | > 100 µM | > 100 | – | – | – | – | – | – | – | – | – | – |
| N#Cc1ccnc(N2C(=O)CC[C@H]2C(=O)N(c2cncc(F)c2)[C@H](C(=O)NC2CC(F)(F)C2)c2ccccc2Cl)c1 | > 100 | > 100 | > 100 | > 100 | > 100 | > 100 | > 100 | > 100 | > 100 µM | > 100 | 41.2 | > 100 | 99.2 | 44.5 µM | 16.7 | > 100 | > 100 µM | > 100 µM | > 100 µM | 27 |
| CCOC(=O)c1c(C(F)(F)F)n([O-])c2ccc(OC)cc2[n+]1=O | 12 | 56.6 | 60.5 | 26.5 | 39.8 | > 100 | 16.2 | 36 | 54.4 µM | 65 | 2.69 | 3.77 | 3.67 | 4.69 µM | 3.55 | 5.12 | 4.13 µM | 4.07 µM | 19.2 µM | 4.38 |
| COc1ccc(NC(=O)c2sc3nc(C)c(C(O)c4ccccc4)cc3c2N)cc1 (centres undefined) | > 100 | > 100 | > 100 | > 100 | 7.22 | > 100 | 13.9 | > 100 | 85.7 µM | 54.2 | 2.93 | 5.24 | 4.38 | 3.63 µM | 1.49 | 4.01 | 3.08 µM | 4.87 µM | 4.88 µM | 0.502 |
| COc1cc(/C=C2\COc3ccc(O)c(O)c3C2=O)cc(OC)c1 | 3.57 | 7.47 | 5.53 | 5.22 | 10.9 | 18.3 | 5.68 | 28.2 | 5.23 µM | 14.6 | 1.42 | 2.17 | 2.12 | 1.36 µM | 2.42 | 0.944 | 1.75 µM | 4.94 µM | 1.93 µM | 1.71 |
| NCc1nnn(Cc2ccccc2)c1N | > 100 | > 100 | > 100 | > 100 | > 100 | > 100 | > 100 | > 100 | > 100 µM | > 100 | – | – | – | – | – | – | – | – | – | – |
| NCCC(O)(P(=O)(O)O)P(=O)(O)O | > 100 | > 100 | > 100 | > 100 | > 100 | 35.6 | > 100 | 36.5 | 43.8 µM | > 100 | 29.1 | > 100 | > 100 | > 100 µM | > 100 | 3.47 | > 100 µM | 14.1 µM | 4.43 µM | 37 |
| CN(C)CCCc1c[nH]c2ccccc12 | > 100 | > 100 | > 100 | > 100 | > 100 | > 100 | > 100 | > 100 | > 100 µM | > 100 | – | – | – | – | – | – | – | – | – | – |
| CS(=O)(=O)Nc1ccc(Nc2c3ccccc3nc3ccccc23)cc1 | 9 | 20.3 | 29.6 | 18.9 | 19.1 | 32.6 | 21 | 7.14 | 16.1 µM | 13 | – | – | – | – | – | – | – | – | – | – |
| COc1ccc2c(c1)CCC1C2CC[C@]2(C)/C(=N/OC(=O)Cc3ccccc3)CCC12 (some centres undefined) | 30.9 | 36.7 | 44.1 | 29.8 | 47.7 | 57.1 | 58.6 | 36.5 | 48.6 µM | 54.5 | 15.3 | 18 | 19.4 | 14.7 µM | 19.9 | 23.2 | 21.7 µM | 18.8 µM | 18.6 µM | 24.7 |
| CCC(=C/[C@H](C)C/C=C/C(C)=C/[C@@H](C)C(=O)[C@@H](C)[C@H](O)[C@@H](C)CC)/C=C/[C@H]1OC(=O)C=C[C@H]1C | 0.0755 | 1.29 | 11.6 | 1.27 | 0.0854 | 1.27 | 0.0684 | 0.598 | < 0.01 µM | 1.18 | < 0.01 | < 0.01 | 0.288 | < 0.01 µM | < 0.01 | < 0.01 | < 0.01 µM | < 0.01 µM | < 0.01 µM | < 0.01 |
| COc1ccc(-c2ccc(C3CC(c4ccc(Cl)cc4)=NN3)o2)c([N+](=O)[O-])c1 (centres undefined) | > 100 | > 100 | > 100 | > 100 | > 100 | > 100 | > 100 | > 100 | > 100 µM | > 100 | 78.4 | > 100 | > 100 | > 100 µM | > 100 | > 100 | > 100 µM | > 100 µM | > 100 µM | > 100 |
| COc1ccc2c(c1)CC[C@@H]1[C@@H]2CC[C@]2(C)C(c3ccco3)=C(C=O)C[C@@H]12 | 16.3 | > 100 | 48.7 | 78 | > 100 | 74.2 | > 100 | 63.5 | 88.1 µM | > 100 | 3.82 | 9.3 | 20.1 | 27 µM | 27.9 | 31.1 | 3.58 µM | 21.6 µM | 29.2 µM | 8.2 |
| Nc1ncnc2c1ncn2C1OC(CO)=CC1O (centres undefined) | > 37.5 | > 37.5 | > 37.5 | > 37.5 | > 37.5 | > 37.5 | > 37.5 | > 37.5 | > 37.5 µM | > 37.5 | – | – | – | – | – | – | – | – | – | – |
| NS(=O)(=O)c1ccc(CCN=C=S)cc1 | 3.59 | 9.26 | 6.23 | 4.96 | 3.16 | 10.3 | 4.52 | 8.52 | 5.84 µM | 3.13 | 1.81 | 2.92 | 2.35 | 2.1 µM | 1.16 | 3.15 | 2.15 µM | 2.84 µM | 2.3 µM | 0.808 |
| CCCCCCCC[N+](C)(CCCCCCCC)CCCCCCCC | 1.32 | 1.54 | 0.788 | 1.91 | 1.42 | 1.46 | 0.361 | 1.49 | 8.81 µM | 1.14 | 0.302 | 0.398 | 0.19 | 0.347 µM | 0.489 | 0.411 | 0.169 µM | 0.406 µM | 0.356 µM | 0.322 |
| CCC(C)C(NC(=O)C1CCCN1C(=O)C(NC(=O)C(C)N)C(C)C)C(N)=O (centres undefined) | > 100 | > 100 | > 100 | > 100 | > 100 | > 100 | > 100 | > 100 | > 100 µM | > 100 | > 100 | > 100 | 77.2 | > 100 µM | > 100 | > 100 | > 100 µM | > 100 µM | > 100 µM | > 100 |
| CCn1cnc2c(Nc3cccc(Cl)c3)nc(N[C@@H]3CCCC[C@@H]3N)nc21 | 3.59 | 8.17 | 3.92 | 8.58 | 2.23 | 9.53 | 2.6 | 5.95 | 3.43 µM | 3.23 | 1.49 | 2.07 | 1.6 | 2 µM | 0.745 | 2.35 | 1.19 µM | 2 µM | 1.65 µM | 0.824 |
| NC1=N/C(=C2/CCNC(=O)c3[nH]c(Br)cc32)C(=O)N1 | > 100 | > 100 | > 100 | > 100 | > 91.5 | > 100 | > 100 | > 100 | 8.72 µM and 26.3 µM | > 100 | – | – | – | 30.4 µM and 97 µM | – | – | 12.6 µM and 44.3 µM | > 64 µM and 21.8 µM | 0.975 µM and 2.9 µM | – |
| COC1=CC(c2ccc[nH]2)=N/C1=C\c1[nH]c(C)c(C(=O)CCCCC(=O)Nc2ccccc2)c1C | 24.5 | 20.8 | 19.8 | 2.07 | 11.4 | 4.82 | 3.8 | 6.11 | 26.7 µM | 2.75 | 8.71 | 6.09 | 2.64 | 0.811 µM | 2.8 | 2.02 | 1.75 µM | 1.85 µM | 11.9 µM | 1.37 |
